Data on 3 molecules can be found in patent publication US5616606A, “Oligopeptide antiretroviral agents” (priority 1995, dated 1997).

In one assay the test system is vaccinia virus. It is filed as cell-based. The conditions noted are these: against vaccinia virus; hydrochloride.
For assay [1], the target named is Moloney Leukemia Virus reverse transcriptase (Moloney murine leukemia virus, UniProt P03355). Put plainly: inhibition of MLV associated reverse transcriptase activity. The note with it: 50% inhibitory dose after 120 min incubation.
Assay [2] deals with T4 lymphocytes (CEM cell line). Put plainly: NCI anti-HIV screen, toxicity control in uninfected cells. Format: cell-based. The conditions noted are these: Table X.
The next assay relates to HIV-1. The conditions noted are these: for INFECTED RESPONSE % of Control: Table X.
A further assay deals with poly(dA-dT). Put plainly: ethidium displacement assay, poly(dA-dT). The conditions noted are these: relative to ethidium 9.5 × 10^6 M^-1, average of repeat measurements.

Where two headings read alike, the source gives them in different places.

Take “1-Methyl-4-(1-methyl-4-trimethylammoniumacetamidopyrrole-2-carboxamido)pyr role-2-carboxyamidopriopionamidine chloride hydrochloride [3(B)]”: in the assay on vaccinia virus, the minimum inhibitory concentration came out at 300 µg/mL.

Molecule “1-Methyl-4-(1-methyl-4-trimethylammoniumacetamidopyrrole-2-carboxamido)pyr role-2-carboxyamidopriopionamidine chloride hydrochloride [Example 3(A)]” had a minimum inhibitory concentration in the assay on vaccinia virus of 20 µg/mL.

Regarding `Cl.Cl.Cn1cc(NC(=O)c2cc(NC(=O)[C@@H]3CC[C@H]3C(=O)Nc3cc(C(=O)Nc4cc(C(=O)NCCC(=N)N)n(C)c4)n(C)c3)cn2C)cc1C(=O)NCCC(=N)N` (relative stereo) [Compound 25b, N,N'-di[1-methyl-2-[1-methyl-2-carboxamido(3-propionamidine)-4-pyrrole]-4-pyrrolyl] trans 1,2-cyclobutaneamide dihydrochloride], the “ID50 (average ± SD)” value in assay [1] is 21.8 ± 9.2 µg/mL. The “[…] % of Control” value is given as 0.54 % of Control in assay [2] (dose 2.92 × 10^-4 Molar); 174.62 % of Control in assay [2] (dose 2.93 × 10^-5 Molar); 116.36 % of Control in assay [2] (dose 2.93 × 10^-6 Molar); 90.95 % of Control in assay [2] (dose 2.94 × 10^-7 Molar); 8.29 % of Control in assay [2] (dose 9.25 × 10^-4 Molar); 101.95 % of Control in assay [2] (dose 9.27 × 10^-5 Molar). The “[…] % of Control” value is reported as 102.41 % of Control in assay [2] (dose 9.29 × 10^-7 Molar) and 145.18 % of Control in assay [2] (dose 9.38 × 10^-6 Molar). The molecule further yielded an EC50 in the assay with HIV-1 (Table XI) of 420 nM. Also, the “INFECTED RESPONSE % of Control” value is on record as 0.04 % of Control with HIV-1 (dose 2.92 × 10^-4 Molar); 110.05 % of Control with HIV-1 (dose 2.93 × 10^-5 Molar); 77.00 % of Control in the assay on HIV-1 (dose 2.93 × 10^-6 Molar); 42.92 % of Control with HIV-1 (dose 2.94 × 10^-7 Molar); 9.72 % of Control with HIV-1 (dose 9.25 × 10^-4 Molar); 90.52 % of Control in the assay with HIV-1 (dose 9.27 × 10^-5 Molar). Besides, the results for the “INFECTED RESPONSE % of Control” value with HIV-1 (dose 9.29 × 10^-7 Molar) and with HIV-1 (dose 9.38 × 10^-6 Molar) were 59.07 % of Control and 80.26 % of Control, respectively. In the assay with poly(dA-dT), this molecule displayed a Kapp of 5.6e+07 M⁻¹.
